Like-named read-outs stand apart in the source and are kept apart here.
Key:
Format in all cases: cell-based
[1] = system: Klebsiella pneumoniae Y-1020 strain producing KPC-3 and SHV-12 (strain B); assay: MIC of test compound alone or with β-lactamase inhibitor at 4 μg/mL; details: for MIC: Strain B; for antibacterial activity in combination with a β-lactamase inhibitor versus without: for all the bacterial strains (strains A to E), summary of Tables 43 to 47
Protocol: (§1) By using a broth microdilution method, the combinational effect of a test compound and a β-lactamase inhibitor was evaluated.
(§2) The evaluation test for antibacterial activity was performed in the same manner as in Test Example 1.

[2] = system: Klebsiella pneumoniae Y-1133 strain producing NDM-1, OXA-48, and CTX-M-15 (strain C); assay: as above
Protocol: as §1, §2
Klebsiella pneumoniae Y-1133 strain producing NDM-1, OXA-48, and CTX-M-15 (hereinafter, called strain C),
(§3) An antibacterial activity evaluation test was performed in the same manner as in Test Example 6.
(§4) As the bacterial strain, the strains B, C, and D producing β-lactamase and a Klebsiella pneumoniae Y-1069 strain (hereinafter, called strain F) producing OXA-48 and CTX-M-15 were used.

[3] = system: Escherichia coli TK-3113 strain producing IMP-8 (strain D); assay: as above
Protocol: as §1, §2
Escherichia coli TK-3113 strain producing IMP-8 (hereinafter, called strain D),
as §3, §4

[4] = system: Escherichia coli TK-1765 strain producing CMY-2 (strain E); assay: as above
Protocol: as §1, §2
Escherichia coli TK-1765 strain producing CMY-2 (hereinafter, called strain E)

[5] = system: AmpC-derepressed Pseudomonas aeruginosa mutant strain (S-3028); assay: Antibacterial activity evaluation test, MIC by broth microdilution (CLSI); details: Pseudomonas aeruginosa S-3028
Outline: (§5)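 Overnight Mueller Hinton agar cultures were suspended to 0.5 McFarland, diluted 10-fold and used to inoculate cation-adjusted Mueller Hinton broth containing test compound. Plates were incubated at 35° C. for 16 to 20 hours; MIC (μg/mL) was the lowest concentration without visible growth.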

[6] = system: CTX-M-15-containing Escherichia coli strain (TK-1747); assay: as above; details: Escherichia coli TK-1747
Outline: as §5

[7] = system: GES-19 and GES-20-containing Pseudomonas aeruginosa strain (S-3759); assay: as above; details: Pseudomonas aeruginosa S-3759
Outline: as §5

[8] = system: IMP-1-containing Pseudomonas aeruginosa strain (S-2838); assay: as above; details: Pseudomonas aeruginosa S-2838
Outline: as §5

[9] = system: KPC-2-containing Klebsiella pneumoniae strain (Y-995); assay: as above; details: Klebsiella pneumoniae Y-995
Outline: as §5

[10] = system: NDM-1-containing Klebsiella pneumoniae strain (Y-1007); assay: as above; details: Klebsiella pneumoniae Y-1007
Outline: as §5

[11] = system: OXA-48-containing Klebsiella pneumoniae strain (Y-1062); assay: as above; details: Klebsiella pneumoniae Y-1062
Outline: as §5

[12] = system: Pseudomonas aeruginosa strain ATCC27853; assay: as above; details: Pseudomonas aeruginosa, ATCC27853
Outline: as §5

[13] = system: VIM-2-containing Pseudomonas aeruginosa strain (S-3779); assay: as above; details: Pseudomonas aeruginosa S-3779
Outline: as §5

[14] = system: Klebsiella pneumoniae Y-1069 strain producing OXA-48 and CTX-M-15 (strain F); assay: MIC of test compound alone or with β-lactamase inhibitor at 4 μg/mL; details: for MIC: Klebsiella pneumoniae, Strain F
Protocol: as §2, §3, §4

[15] = system: Escherichia coli TK-1747 strain producing CTX-M-15 (strain A); assay: as above
Protocol: as §1, §2
Escherichia coli TK-1747 strain producing CTX-M-15 (hereinafter, called strain A),

[16] = test compound alone (β-lactamase inhibitor N/A)

CC(C)(O/N=C(\C(=O)N[C@@H]1C(=O)N2C[C@@](C(=O)O)(N3CCN(NC(=O)C(=O)c4ccc(O)c(O)c4Cl)C3=O)S[C@H]12)c1nc(N)sc1Cl)C(=O)O [Compound D]
MIC ([1]; AVI added at 4 μg/mL): 0.25 µg/mL | MIC ([1]; NAC added at 4 μg/mL): <0.015 µg/mL | MIC ([1]; ZID added at 4 μg/mL): <0.015 µg/mL | MIC [1, 16]: 2 µg/mL | antibacterial activity in combination with a β-lactamase inhibitor versus without [1]: higher antibacterial activity | MIC ([2]; AVI added at 4 μg/mL): 0.12 µg/mL | MIC ([2]; NAC added at 4 μg/mL): <0.015 µg/mL | MIC ([2]; ZID added at 4 μg/mL): <0.015 µg/mL | MIC [2, 16]: 0.5 µg/mL | MIC ([3]; AVI added at 4 μg/mL): 0.5 µg/mL | MIC ([3]; NAC added at 4 μg/mL): 0.06 µg/mL | MIC ([3]; ZID added at 4 μg/mL): 0.03 µg/mL | MIC [3, 16]: 1 µg/mL | MIC [4, 16]: 0.5 µg/mL | MIC ([4]; with AVI at 4 μg/mL): 0.03 µg/mL | MIC ([4]; with CVA at 4 μg/mL): 0.25 µg/mL | MIC ([4]; with SBT at 4 μg/mL): 0.25 µg/mL | MIC ([4]; with TAZ at 4 μg/mL): 0.06 µg/mL | MIC ([4]; with VAB at 4 μg/mL): 0.12 µg/mL

C=C(O/N=C(\C(=O)NC1C(=O)N2C[C@@](C(=O)O)(N3CCN(NC(=O)C(=O)c4ccc(O)c(O)c4Cl)C3=O)S[C@H]12)c1csc(N)n1)C(=O)O (stereo partly drawn) [Example 144, (3R,5R,6R)-6-((Z)-2-(2-aminothiazol-4-yl)-2-(((1-carboxyvinyl)-oxy)imino)acetamido)-3-(3-(2-(2-chloro-3,4-dihydroxyphenyl)-2-oxoacetamido)-2-oxo-imidazolidin-1-yl)-7-oxo-4-thia-1-azabicyclo-[3.2.0]heptane-3-car-boxylic acid]
Antibacterial activity (MIC) Pseudomonas aeruginosa S-3028 [5]: < 0.12 µg/mL | Antibacterial activity (MIC) Escherichia coli TK-1747 [6]: < 0.12 µg/mL | Antibacterial activity (MIC) Pseudomonas aeruginosa S-3759 [7]: 1 µg/mL | Antibacterial activity (MIC) Pseudomonas aeruginosa S-2838 [8]: 32 µg/mL | Antibacterial activity (MIC) Klebsiella pneumoniae Y-995 [9]: < 0.12 µg/mL | Antibacterial activity (MIC) Klebsiella pneumoniae Y-1007 [10]: < 0.12 µg/mL | Antibacterial activity (MIC) Klebsiella pneumoniae Y-1062 [11]: 0.5 µg/mL | Antibacterial activity (MIC) Pseudomonas aeruginosa ATCC 27853 [12]: 0.25 µg/mL | Antibacterial activity (MIC) Pseudomonas aeruginosa S-3779 [13]: 0.25 µg/mL | MIC ([1]; Klebsiella pneumoniae, test compound alone (β-lactamase inhibitor N/A), read-out: MIC): 1 µg/mL | MIC ([1]; Klebsiella pneumoniae, with AVI at 4 μg/mL, read-out: MIC): 0.25 µg/mL | MIC ([1]; Klebsiella pneumoniae, with CVA at 4 μg/mL, read-out: MIC): 0.25 µg/mL | MIC ([1]; Klebsiella pneumoniae, with NAC at 4 μg/mL, read-out: MIC): < 0.015 µg/mL | MIC ([1]; Klebsiella pneumoniae, with ZID at 4 μg/mL, read-out: MIC): 0.03 µg/mL | MIC ([2]; Klebsiella pneumoniae, with ZID at 4 μg/mL): < 0.015 µg/mL | MIC ([3]; Escherichia coli, test compound alone (β-lactamase inhibitor N/A)): 0.5 µg/mL | MIC ([3]; Escherichia coli, with AVI at 4 μg/mL): 0.25 µg/mL | MIC ([3]; Escherichia coli, with CVA at 4 μg/mL): 0.25 µg/mL | MIC ([3]; Escherichia coli, with NAC at 4 μg/mL): < 0.015 µg/mL | MIC ([3]; Escherichia coli, with SBT at 4 μg/mL): 0.25 µg/mL | MIC ([3]; Escherichia coli, with TAZ at 4 μg/mL): 0.125 µg/mL | MIC ([3]; Escherichia coli, with ZID at 4 μg/mL): < 0.015 µg/mL | MIC [14, 16]: 4 µg/mL | MIC ([14]; with AVI at 4 μg/mL): 0.25 µg/mL | MIC ([14]; with CVA at 4 μg/mL): 2 µg/mL | MIC ([14]; with NAC at 4 μg/mL): 0.06 µg/mL | MIC ([14]; with SBT at 4 μg/mL): 2 µg/mL | MIC ([14]; with TAZ at 4 μg/mL): 2 µg/mL | MIC ([14]; with ZID at 4 μg/mL): 0.03 µg/mL | antibacterial activity in combination with a β-lactamase inhibitor versus without ([14]; for all the bacterial strains (strains B, C, D and F), summary of Tables 51 and 52): higher antibacterial activity

Nc1nc(/C(=N/OC2(C(=O)O)CC2)C(=O)N[C@@H]2C(=O)N3C[C@@](C(=O)O)(N4CCN(NC(=O)C(=O)c5ccc(O)c(O)c5Cl)C4=O)S[C@H]23)cs1 [Compound E]
MIC ([15]; AVI added at 4 μg/mL): <0.015 µg/mL | MIC ([15]; CVA added at 4 μg/mL): <0.015 µg/mL | MIC ([15]; NAC added at 4 μg/mL): <0.015 µg/mL | MIC ([15]; SBT added at 4 μg/mL): <0.015 µg/mL | MIC ([15]; TAZ added at 4 μg/mL): <0.015 µg/mL | MIC ([15]; ZID added at 4 μg/mL): <0.015 µg/mL | MIC [15, 16]: 0.06 µg/mL | MIC ([1]; AVI added at 4 μg/mL): 0.25 µg/mL | MIC ([1]; NAC added at 4 μg/mL): <0.015 µg/mL | MIC ([1]; VAB added at 4 μg/mL): 1 µg/mL | MIC ([1]; ZID added at 4 μg/mL): <0.015 µg/mL | MIC [1, 16]: 4 µg/mL | antibacterial activity in combination with a β-lactamase inhibitor versus without [1]: higher antibacterial activity | MIC ([2]; AVI added at 4 μg/mL): 0.12 µg/mL | MIC ([2]; NAC added at 4 μg/mL): <0.015 µg/mL | MIC ([2]; ZID added at 4 μg/mL): <0.015 µg/mL | MIC [2, 16]: 1 µg/mL | MIC ([3]; AVI added at 4 μg/mL): 0.12 µg/mL | MIC ([3]; NAC added at 4 μg/mL): <0.015 µg/mL | MIC ([3]; ZID added at 4 μg/mL): <0.015 µg/mL | MIC [3, 16]: 0.25 µg/mL | MIC [4, 16]: 1 µg/mL | MIC ([4]; with AVI at 4 μg/mL): 0.06 µg/mL | MIC ([4]; with SBT at 4 μg/mL): 0.5 µg/mL | MIC ([4]; with TAZ at 4 μg/mL): 0.25 µg/mL | MIC ([4]; with VAB at 4 μg/mL): 0.12 µg/mL

Reference: patent US20220241249A1, “PHARMACEUTICAL COMPOSITION AND KIT CONTAINING NOVEL PENAM DERIVATIVE OR SALT THEREOF AND ONE OR MORE COMPOUNDS SELECTED FROM beta-LACTAMASE INHIBITORY COMPOUND AND ANTIBACTERIAL COMPOUND OR SALTS THEREOF” (priority 2019, published 2022)
